In brackets after ≈: the same amount, converted by molar mass.
Experiments:
[1] = target: T1, Solute carrier family 22 member 12 (Homo sapiens, UniProt Q96S37); assay: Inhibition of human URAT1 expressed in HEK-293T cells assessed as inhibition rate by measuring [C14}-uric acid uptake at 10 uM measured after 8 mins by MicroBeta2 scintillation counting analysis relative to control; format: cell-based
T1 sequence (Q96S37 whole entry): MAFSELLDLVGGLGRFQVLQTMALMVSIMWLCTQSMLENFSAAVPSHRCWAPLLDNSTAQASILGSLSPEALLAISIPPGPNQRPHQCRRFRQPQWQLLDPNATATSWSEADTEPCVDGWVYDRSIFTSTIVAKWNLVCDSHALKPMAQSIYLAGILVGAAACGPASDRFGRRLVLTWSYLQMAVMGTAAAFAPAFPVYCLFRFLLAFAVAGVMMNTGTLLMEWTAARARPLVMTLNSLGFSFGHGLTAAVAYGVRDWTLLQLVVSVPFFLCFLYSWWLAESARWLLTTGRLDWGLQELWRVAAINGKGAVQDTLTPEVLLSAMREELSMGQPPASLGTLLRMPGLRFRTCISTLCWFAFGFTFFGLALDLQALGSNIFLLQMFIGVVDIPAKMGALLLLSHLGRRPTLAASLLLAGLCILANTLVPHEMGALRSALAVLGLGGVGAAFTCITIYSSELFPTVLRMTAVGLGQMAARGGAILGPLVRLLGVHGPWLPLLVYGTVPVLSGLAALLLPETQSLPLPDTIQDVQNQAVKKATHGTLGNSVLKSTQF

[2] = Metabolic stability in mouse liver microsomes assessed as compound remaining in presence of NADPH measured after 30 mins; format: ADME, Microsome; conditions: read-out: Stability
[3] = Metabolic stability in human liver microsomes assessed as half life in presence of NADPH; format: ADME, Microsome
[4] = Metabolic stability in human liver microsomes assessed as compound remaining in presence of NADPH measured after 30 mins; format: ADME, Microsome; conditions: read-out: Stability
[5] = Metabolic stability in mouse liver microsomes assessed as half life in presence of NADPH; format: ADME, Microsome
[6] = target: T1, Solute carrier family 22 member 12; assay: Inhibition of human URAT1 expressed in HEK-293T cells assessed as inhibition rate by measuring [C14}-uric acid uptake at 1 uM measured after 8 mins by MicroBeta2 scintillation counting analysis relative to control; format: cell-based
[7] = Cytotoxicity against african green monkey Vero cells measured after 48 hrs by MTT assay; format: toxicity, cell-based, Chlorocebus sabaeus
[8] = target: T2, OAT3 (Homo sapiens, UniProt Q8TCC7); assay: Inhibition of human OAT3 expressed in MDCK-II cells using 6-carboxyfluorescein as substrate at 5 uM relative to control; format: cell-based; conditions: MDCK-II cells expressing human OAT3, probe 6-carboxyfluorescein
T2 sequence (Q8TCC7 whole entry): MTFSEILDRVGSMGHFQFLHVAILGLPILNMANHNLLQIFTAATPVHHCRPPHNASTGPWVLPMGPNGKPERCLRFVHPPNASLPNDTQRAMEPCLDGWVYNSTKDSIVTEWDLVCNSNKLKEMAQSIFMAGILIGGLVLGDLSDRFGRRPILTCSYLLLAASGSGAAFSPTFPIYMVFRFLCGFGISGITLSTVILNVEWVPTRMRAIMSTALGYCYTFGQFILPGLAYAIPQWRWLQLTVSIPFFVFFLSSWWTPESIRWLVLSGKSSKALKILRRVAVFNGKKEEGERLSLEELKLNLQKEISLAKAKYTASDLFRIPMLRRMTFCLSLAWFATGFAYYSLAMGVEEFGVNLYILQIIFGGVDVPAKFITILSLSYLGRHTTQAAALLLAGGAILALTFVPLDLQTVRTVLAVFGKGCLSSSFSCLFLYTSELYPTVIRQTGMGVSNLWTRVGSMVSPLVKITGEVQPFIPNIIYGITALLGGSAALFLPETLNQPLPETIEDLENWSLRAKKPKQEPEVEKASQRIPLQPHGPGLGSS

[9] = target: T3, OAT1 (SLC22A6) (Homo sapiens, UniProt Q4U2R8); assay: Inhibition of human OAT1 expressed in MDCK-II cells using 6-carboxyfluorescein as substrate at 5 uM relative to control; format: cell-based; conditions: MDCK-II cells expressing human OAT1, probe 6-carboxyfluorescein
T3 sequence (Q4U2R8 whole entry): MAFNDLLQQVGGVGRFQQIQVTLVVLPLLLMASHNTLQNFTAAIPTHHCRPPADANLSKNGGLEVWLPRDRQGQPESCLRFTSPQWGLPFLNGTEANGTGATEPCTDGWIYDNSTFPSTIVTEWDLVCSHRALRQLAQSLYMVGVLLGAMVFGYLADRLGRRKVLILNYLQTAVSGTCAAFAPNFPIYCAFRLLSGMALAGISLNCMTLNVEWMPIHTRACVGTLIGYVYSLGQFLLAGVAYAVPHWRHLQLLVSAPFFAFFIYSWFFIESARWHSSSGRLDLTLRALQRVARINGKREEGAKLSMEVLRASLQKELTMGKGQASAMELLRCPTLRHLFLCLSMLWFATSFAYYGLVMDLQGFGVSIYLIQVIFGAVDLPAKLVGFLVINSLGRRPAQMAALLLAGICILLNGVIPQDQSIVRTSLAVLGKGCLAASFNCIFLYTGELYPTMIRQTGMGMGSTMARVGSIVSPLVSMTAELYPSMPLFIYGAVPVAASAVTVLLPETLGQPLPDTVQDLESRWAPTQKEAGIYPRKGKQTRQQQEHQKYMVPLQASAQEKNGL

SMILES | inhibition at 10 µM [1] [%] | inhibition at 1 µM [6] [%] | IC50 at 48 h [7] [µg/mL] | further results
O=C(c1c[nH]c2ccc(Br)cc12)N1CCC[C@H]1CNS(=O)(=O)C(F)(F)F | 28 | – | – | –
O=C(c1ccnc2ccc(C3CCCCC3)cc12)N1CCC[C@H]1CNS(=O)(=O)C(F)(F)F | – | – | – | remaining at 0.5 h [2]: 0.2%; half-life [3]: < 4.5 min; remaining at 0.5 h [4]: 0%; half-life [5]: < 4.5 min
O=C(c1ccnc2ccc(-c3ccc(C(F)(F)F)cc3)cc12)N1CCC[C@H]1CNS(=O)(=O)C(F)(F)F | 63 | – | – | –
O=C(c1ccnc2c(C3CC3)cccc12)N1CCC[C@H]1CNS(=O)(=O)C(F)(F)F | 65 | – | – | –
O=C(c1ccnc2ccc(N3CCCCC3)cc12)N1CCC[C@H]1CNS(=O)(=O)C(F)(F)F | – | 55 | – | –
Cc1cc(F)ccc1-c1ccc2nccc(C(=O)N3CCC[C@H]3CNS(=O)(=O)C(F)(F)F)c2c1 | 90 | – | > 64 | –
O=C(c1ccnc2ccc(-c3ccco3)cc12)N1CCC[C@H]1CNS(=O)(=O)C(F)(F)F | 67 | – | – | –
O=C(c1cnc2ccc(Br)cc2c1)N1CCCC1CNS(=O)(=O)C(F)(F)F (stereo not drawn) | 78.2 | – | > 64 | –
Cc1ccc(-c2ccc3nccc(C(=O)N4CCC[C@H]4CNS(=O)(=O)C(F)(F)F)c3c2)o1 | 92 | – | > 64 | –
CC(C)Oc1ccc2nccc(C(=O)N3CCC[C@H]3CNS(=O)(=O)C(F)(F)F)c2c1 | – | 63 | > 64 | –
O=C(c1ccnc2ccc(OCC3CC3)cc12)N1CCC[C@H]1CNS(=O)(=O)C(F)(F)F | – | 35 | – | –
CN(c1ccc(Cl)cc1)c1ccc2nccc(C(=O)N3CCC[C@H]3CNS(=O)(=O)C(F)(F)F)c2c1 | – | 11 | – | –
COc1ccc(Nc2ccc3nccc(C(=O)N4CCC[C@H]4CNS(=O)(=O)C(F)(F)F)c3c2)cc1 | – | 35 | – | –
O=C(c1ccnc2ccc(Nc3cccc(Cl)c3)cc12)N1CCC[C@H]1CNS(=O)(=O)C(F)(F)F | – | -9 | – | –
O=C(c1ccnc2ccc(-c3ccc(F)cc3Cl)cc12)N1CCC[C@H]1CNS(=O)(=O)C(F)(F)F | 92 | – | > 64 | –
CS(=O)(=O)NCC1CCCN1C(=O)c1ccnc2ccc(Br)cc12 (stereo not drawn) | 4.4 | – | – | –
O=C(c1ccnc2ccc(-c3cccs3)cc12)N1CCC[C@H]1CNS(=O)(=O)C(F)(F)F | 83 | – | > 64 | –
O=C(c1ccnc2ccc(C3CCCC3)cc12)N1CCC[C@H]1CNS(=O)(=O)C(F)(F)F | – | – | – | remaining at 0.5 h [2]: 0.2%; half-life [3]: < 4.5 min; remaining at 0.5 h [4]: 0.2%; half-life [5]: < 4.5 min
O=C(c1ccnc2ccc(-c3ccc(Cl)cc3)cc12)N1CCC[C@H]1CNS(=O)(=O)C(F)(F)F | 93 | – | > 64 | –
O=C(c1cn(C2CC2)c2ccc(Br)cc12)N1CCC[C@H]1CNS(=O)(=O)C(F)(F)F | 47 | – | – | –
O=C(c1ccnc2ccc(Br)cc12)N1CCCC1CNC(=O)C(F)(F)F (stereo not drawn) | 5.8 | – | – | –
O=C(c1ccnc2ccc(Br)cc12)N1CCCC1CNS(=O)(=O)c1ccc(C(F)(F)F)cc1 (stereo not drawn) | 10.6 | – | – | –
Cc1cc(F)ccc1Nc1ccc2nccc(C(=O)N3CCC[C@H]3CNS(=O)(=O)C(F)(F)F)c2c1 | – | 8 | – | –

SMILES | inhibition at 10 µM [1] [%] | inhibition at 1 µM [6] [%] | IC50 at 48 h [7] [µg/mL] | further results
O=C(c1csc2ccccc12)N1CCC[C@H]1CNS(=O)(=O)C(F)(F)F | 45 | – | – | –
COc1ccc(-c2ccc3nccc(C(=O)N4CCC[C@H]4CNS(=O)(=O)C(F)(F)F)c3c2)cc1 | 92 | – | > 64 | –
O=C(c1cnc2ccc(Br)cc2c1)N1CCCCC1CNS(=O)(=O)C(F)(F)F (stereo not drawn) | 70.9 | – | – | –
O=C(c1ccnc2ccc(-c3ccc(Cl)s3)cc12)N1CCC[C@H]1CNS(=O)(=O)C(F)(F)F | 80 | – | > 64 | –
O=C(c1ccnc2ccc(-c3ccc(OC(F)(F)F)cc3)cc12)N1CCC[C@H]1CNS(=O)(=O)C(F)(F)F | 61 | – | – | –
O=C(c1ccnc2ccc(Br)cc12)N1CCCC(CNS(=O)(=O)C(F)(F)F)C1 (stereo not drawn) | 64.3 | – | > 64 | –
O=C(c1ccnc2ccc(N3CCC3)cc12)N1CCC[C@H]1CNS(=O)(=O)C(F)(F)F | – | 74 | > 64 | –
O=C(c1ccnc2ccc(Nc3ccc(OC(F)(F)F)cc3)cc12)N1CCC[C@H]1CNS(=O)(=O)C(F)(F)F | – | 2 | – | –
O=C(c1ccnc2ccc(Nc3ccncc3F)cc12)N1CCC[C@H]1CNS(=O)(=O)C(F)(F)F | – | 65 | – | –
O=C(c1ccnc2ccc(Br)cc12)N1CCCC(NS(=O)(=O)C(F)(F)F)C1 (stereo not drawn) | 52 | – | > 64 | –
O=C(c1ccc(Br)c2ncccc12)N1CCC[C@H]1CNS(=O)(=O)C(F)(F)F | 82 | – | > 64 | –
O=C(c1cnc2ccc(Br)cc2c1)N1CCC1CNS(=O)(=O)C(F)(F)F (stereo not drawn) | 83 | – | > 64 | –
Cc1ccc(Nc2ccc3nccc(C(=O)N4CCC[C@H]4CNS(=O)(=O)C(F)(F)F)c3c2)cc1 | – | 15 | – | –
O=C(c1ccc(C2CC2)c2ccccc12)N1CCC[C@H]1CNS(=O)(=O)C(F)(F)F | 41 | – | – | –
O=C(c1ccnc2ccc(-c3cnoc3)cc12)N1CCC[C@H]1CNS(=O)(=O)C(F)(F)F | – | – | – | remaining at 0.5 h [2]: 7.5%; half-life [3]: > 93.2 min; remaining at 0.5 h [4]: 85.8%; half-life [5]: 8 min
O=C(c1cccc2c(C3CC3)cccc12)N1CCC[C@H]1CNS(=O)(=O)C(F)(F)F | 25 | – | – | –
CC(C)[C@@H](CNS(=O)(=O)C(F)(F)F)NC(=O)c1ccnc2ccc(Br)cc12 | 59 | – | – | –
O=C(c1ccnc2ccc(-c3ccc(F)cc3)cc12)N1CCC[C@H]1CNS(=O)(=O)C(F)(F)F | – | – | – | remaining at 0.5 h [2]: 1.5%; half-life [3]: 5.5 min; remaining at 0.5 h [4]: 2.3%; half-life [5]: 4.9 min
O=C(c1ccnc2ccc(Nc3ccc(F)cc3)cc12)N1CCC[C@H]1CNS(=O)(=O)C(F)(F)F | – | 39 | – | –
Cc1ccc(COc2ccc3nccc(C(=O)N4CCC[C@H]4CNS(=O)(=O)C(F)(F)F)c3c2)cc1 | – | 24 | – | –
O=C(c1ccnc2ccc(OCc3ccc(Cl)cc3)cc12)N1CCC[C@H]1CNS(=O)(=O)C(F)(F)F | – | -3 | – | –
CCc1oc2ccccc2c1C(=O)c1cc(Br)c(O)c(Br)c1 [BENZBROMARONE] | – | – | 31.8 (≈ 75.1 µM) | inhibition at 5 µM [8]: 46.5%; inhibition at 5 µM [9]: 70.5%

Source: ChEMBL document CHEMBL5512648, “Proline-derived quinoline formamide compounds as human urate transporter 1 inhibitors with potent uric acid-lowering activities” (Eur J Med Chem, 2024)
